The target in one test is DYRK1A kinase (Homo sapiens, UniProt Q13627). Nature of the test: DYRK1A kinase activity (Ser/Thr 18 peptide Z-lyte FRET assay).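 Also: kinase activity read as coumarin/fluorescein emission ratio after development step, with unphosphorylated and phosphorylated peptide forms setting 0% and 100% controls, values from dose-response curves.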 It counts as biochemical. As to conditions: recombinant DYRK1A, 30 μM ATP, one hour at room temperature.
The next test concerns the target GSK3β kinase (Homo sapiens, UniProt P49841). Put plainly: GSK3β kinase activity (Ser/Thr 09 peptide Z-lyte FRET assay). As to conditions: recombinant kinase, 46 μM ATP, one hour at room temperature; read-out: EC50. It counts as biochemical.
The test system of test [1] is secreted cytokines TNFα, IL-6 and KC-GRO. Nature of the test: Secreted cytokines in Lipopolysaccharide-stimulated BV-2 cells (Table 9 does not say which cytokine). It counts as cell-based, mouse. As to conditions: Mus musculus, BV-2, 5 h; read-out: EC50.
In test [2] the test system is SW480 colon carcinoma cells. Put plainly: Cell viability assay (CellTiter-Glo). The note with it: Homo sapiens; for EC50: SW480, 96 h; for inhibition at 10 µM: SW480, read-out: percent inhibition at 10 μM.
Experimental: Representative compounds were screened using the assay procedure to assess the effect on cell viability as described below.
SW480 colon carcinoma cells were transduced with a lentiviral vector expressing luciferase with a human Sp5 promoter consisting of a sequence of eight TCF/LEF binding sites. […] These stably transduced SW480 cells were expanded in cell culture and used for all further screening activities. Each compound was dissolved in DMSO as a 10 mM stock and used to prepare compound source plates.
For the Cell Viability Assays, the cells were plated at 2,000 cells/well in 384-well plates with a DMEM medium containing 1% fetal bovine serum, and 1% Penicillin-Streptomycin and incubated for four days hours at 37° C. and 5% CO2. Eight replicates of DMSO-treated cells served as controls and cells treated with compound were performed in duplicate.
After incubation, 10 μL of CellTiter-Glo (Promega) was added to each well allowed to incubate for approximately 12 minutes. This reagent “results in cell lysis and generation of a luminescent signal proportional to the amount of ATP present. The amount of ATP is directly proportional to the number of cells present in culture, in agreement with previous reports. The CellTiter-Glo Assay generates a “glow-type” luminescent signal, produced by the luciferase reaction (Promega.com)”.
Dose-response curves were generated and EC50 concentration values were calculated using non-linear regression curve fit in the GraphPad Prism (San Diego, Calif.) or Dotmatics' Studies Software (Bishops Stortford, UK).
In test [3] the test system is Wnt-responsive Sp5-Luc reporter in SW480 colon carcinoma cells. Put plainly: Screening assay for Wnt activity (Sp5-Luc reporter gene assay). The note with it: Homo sapiens; for EC50: SW480; for inhibition at 10 µM: SW480, read-out: percent inhibition at 10 μM.
For a further test, the system named is IL-6. Nature of the test: IL-6 inhibition in LPS-stimulated human peripheral blood mononuclear cells (HTRF). As to conditions: Homo sapiens, PBMC; for EC50: 22 h; for inhibition at 10 µM: read-out: percentage in parentheses after EC50 >10.
Test [4] has as its system α-smooth muscle actin (aSMA) positive LL29 cells. Put plainly: Inhibition of the fibrotic process: αSMA staining in TGF-β1 treated LL29 fibroblasts from IPF patients. The note with it: Homo sapiens, Fibroblast; for EC50: 96 h; for inhibition at 10 µM: read-out: percentage in parentheses after EC50 >10.

The structures appear in SMILES notation.

GSK3β kinase, sequence (P49841 whole entry): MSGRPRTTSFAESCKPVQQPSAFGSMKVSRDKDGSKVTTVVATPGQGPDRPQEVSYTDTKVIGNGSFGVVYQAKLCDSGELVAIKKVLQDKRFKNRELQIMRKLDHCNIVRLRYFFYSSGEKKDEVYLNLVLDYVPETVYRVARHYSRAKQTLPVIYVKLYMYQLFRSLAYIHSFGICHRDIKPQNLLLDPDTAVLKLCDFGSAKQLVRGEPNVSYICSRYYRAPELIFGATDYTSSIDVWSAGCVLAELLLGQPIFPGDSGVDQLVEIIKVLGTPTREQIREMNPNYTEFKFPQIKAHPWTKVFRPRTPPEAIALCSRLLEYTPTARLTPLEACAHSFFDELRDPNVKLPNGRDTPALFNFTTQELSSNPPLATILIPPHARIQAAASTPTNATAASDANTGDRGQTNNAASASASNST

As to `CN1CCN(c2cc(C(=O)Nc3cc4nc(-c5cnn(C)c5)ccc4cn3)ccn2)CC1` [Compound 147, N-(2-(1-Methyl-1H-pyrazol-4-yl)-1,6-naphthyridin-7-yl)-2-(4-methylpiperazin-1-yl)isonicotinamide], the EC50 at DYRK1A kinase was 7 nM; on GSK3β kinase it was above 10000 nM; in test [1], 122 nM; in test [2], 311 nM; in test [3], 102 nM; in the test on IL-6, 2200 nM. In test [4], this compound yielded an EC50 of 410 nM.
For the compound `CN1CCC(C(=O)Nc2cc3cc(-c4cnsc4)cnc3cn2)CC1` [Compound 3412, N-(3-(Isothiazol-4-yl)-1,7-naphthyridin-6-yl)-1-methylpiperidine-4-carboxamide], the EC50 at DYRK1A kinase was 40 nM; on GSK3β kinase, above 10000 nM; in test [1], 1500 nM; in test [2], above 10000 nM; in test [3] it was above 10000 nM; in the test on IL-6 it was above 10000 nM. For the same compound, the EC50 in test [4] is above 10000 nM. Further, the inhibition at 10 µM in test [2] came out at 41.5%; in test [3], 47.1%; with IL-6, 2.7%; in test [4], 46.2%.
With `CN1CCc2ccc(C(=O)Nc3cc4nc(-c5cnn(C)c5)ccc4cn3)cc2C1` [Compound 202, 2-Methyl-N-(2-(1-methyl-1H-pyrazol-4-yl)-1,6-naphthyridin-7-yl)-1,2,3,4-tetrahydroisoquinoline-7-carboxamide], the EC50 was 9 nM on DYRK1A kinase; above 10000 nM at GSK3β kinase; 300 nM in test [1]; 9310 nM in test [2]; 686 nM in test [3]; above 10000 nM with IL-6. In addition, in test [4], a half-maximal effect (EC50) was put at 530 nM. In addition, in the test on IL-6, the inhibition at 10 µM was 5.1%.
Turning to `Cn1cc(-c2cc3cc(NC(=O)c4ccc5ccoc5c4)ncc3cn2)cn1` [Compound 3836, N-(6-(1-Methyl-1H-pyrazol-4-yl)-2,7-naphthyridin-3-yl)benzofuran-6-carboxamide], the EC50 at DYRK1A kinase was 5 nM; on GSK3β kinase it was 1470 nM; in test [1], 1000 nM; in test [2], above 10000 nM; in test [3], 220 nM; in the test on IL-6, above 10000 nM. Also, the EC50 in test [4] was above 10000 nM. Moreover, the inhibition at 10 µM was found to be 33.9% in test [2], 1.4% in the test on IL-6 and 10% in test [4].
Regarding `Cn1cncc1-c1cnc2cnc(NC(=O)c3ccc(F)cc3)cc2c1` [Compound 3168, 4-Fluoro-N-(3-(1-methyl-1H-imidazol-5-yl)-1,7-naphthyridin-6-yl) benzamide], the EC50 on DYRK1A kinase is 8 nM; at GSK3β kinase, above 10000 nM; in test [1], 2600 nM; in test [2], above 10000 nM; in test [3], above 10000 nM; with IL-6, above 10000 nM. Besides, the EC50 in test [4] was above 10000 nM. Moreover, the inhibition at 10 µM in test [2] was determined as 25.8%; in test [3], 17.3%; in the test on IL-6 it was 0%; in test [4] it was 10.2%.
For `Cn1cncc1-c1cnc2cnc(NC(=O)c3cccc(CN4CCCC4)c3)cc2c1` [Compound 3259, N-(3-(1-Methyl-1H-imidazol-5-yl)-1,7-naphthyridin-6-yl)-3-(pyrrolidin-1-ylmethyl)benzamide], the EC50 on DYRK1A kinase is 24 nM; on GSK3β kinase, above 10000 nM; in test [1], 1200 nM; in test [2], 1940 nM; in test [3], 3500 nM; in the test on IL-6 it was above 10000 nM. In test [4], this compound had an EC50 above 10000 nM. Besides, the inhibition at 10 µM with IL-6 came out at 4.1%; in test [4] it was 48.4%.

As usually defined, the EC50 is the midpoint of the concentration-response curve.

(Values after patent US10703748B2, “Diazanaphthalen-3-yl carboxamides and preparation and use thereof” (Samumed, LLC, priority 2017, dated 2020).)
